# Read-outs that look alike come from different tables or passages of the source. Where no end group is shown, it is not given here.
# Assays:
# Experiment in all cases: Direct-binding FRET assay
# Conditions in all cases: read-out: Kd
# ATF3 = target: T1, ATF3 (Homo sapiens, UniProt P18847)
# T1 construct: made in house
# T1 sequence (P18847 86-149 limits assumed): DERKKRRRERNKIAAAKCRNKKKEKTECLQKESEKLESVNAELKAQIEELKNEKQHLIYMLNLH
# Protocol: (§1) The direct binding assay was performed manually in 384-well plates and is similar to a previously described assay. Wells were filled with 20 μL of 1 mM TCEP-HCl. A 4 μM stock of acceptor protein was made fresh in 1 mM TCEP-HCl, and 20 μL was titrated in 2-fold dilutions over the wells. […] The direct-binding FRET data were fit as previously described. Briefly, the Kd of the designed peptide homodimer was experimentally determined and used with previously determined target homodimer Kd values to determine the heterodimer Kd. The homodimer Kd values used for the human bZIPs were from; experiments done by […] et al. used the same protein constructs for the human bZIP proteins, the same buffer conditions, and the same assay. The fitting used a system of ordinary differential equations to describe the concentrations of homo and heterodimers formed by the donor (D) and acceptor (A) as a function of the heterodimer Kd. MATLAB was used to simulate the binding experiment for different Kd values, and the value that gave the best agreement between simulation and experiment was assigned. A minimum 15% change in the donor fluorescence upon titrating the acceptor peptide from 0 to 1000 nM was required for a fit to be attempted. If this minimum was not met, the interaction was classified as “NS” for no signal change. […] For such curves, we removed the first five points and re-fit the data.
# ATF4 = target: T2, ATF4 (Homo sapiens, UniProt P18848)
# T2 construct: made in house
# T2 sequence (P18848 278-341 limits assumed): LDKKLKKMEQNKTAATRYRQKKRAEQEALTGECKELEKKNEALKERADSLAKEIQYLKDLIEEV
# Protocol: as §1
# CREB1 = target: T3, CREB1 (Homo sapiens, UniProt P16220)
# T3 construct: made in house
# T3 sequence (P16220 269-327 limits assumed): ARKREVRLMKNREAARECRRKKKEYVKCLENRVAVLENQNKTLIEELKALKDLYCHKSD
# Protocol: as §1
# MAFF = target: T4, MAFF (Homo sapiens, UniProt Q9ULX9)
# T4 construct: made in house
# T4 sequence (Q9ULX9 51-114 limits assumed): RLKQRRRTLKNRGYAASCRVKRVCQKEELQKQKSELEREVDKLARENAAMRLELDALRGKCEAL
# Protocol: as §1
# NFE2 = target: T5, NFE2 (Homo sapiens, UniProt Q16621)
# T5 construct: made in house
# T5 sequence (Q16621 266-329 limits assumed): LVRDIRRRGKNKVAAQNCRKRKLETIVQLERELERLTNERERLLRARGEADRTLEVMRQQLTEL
# Protocol: as §1
# NFE2L3 = target: T6, NFE2L3 (Homo sapiens, UniProt Q9Y4A8)
# T6 construct: made in house
# T6 sequence (Q9Y4A8 578-641 limits assumed): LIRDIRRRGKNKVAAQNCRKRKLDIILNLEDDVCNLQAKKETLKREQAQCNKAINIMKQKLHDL
# Protocol: as §1
# XBP1 = target: T7, XBP1 (Homo sapiens, UniProt P17861)
# T7 construct: made in house
# T7 sequence (P17861 70-133 limits assumed): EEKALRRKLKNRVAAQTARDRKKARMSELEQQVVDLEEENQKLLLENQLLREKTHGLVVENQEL
# Protocol: as §1
# ATF6B = ATF6B (Homo sapiens, UniProt Q99941); design: made in house
# ATF6B, sequence (Q99941 325-388 limits assumed): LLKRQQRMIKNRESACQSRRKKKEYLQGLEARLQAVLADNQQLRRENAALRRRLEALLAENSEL
# Protocol: as §1
# FOS = FOS (Homo sapiens, UniProt P01100); design: made in house
# Protocol: as §1
# JUN = JUN (Homo sapiens, UniProt P05412); design: made in house
# Protocol: as §1
# MAFG = MAFG (Homo sapiens, UniProt O15525); design: made in house
# MAFG, sequence (O15525 51-114 limits assumed): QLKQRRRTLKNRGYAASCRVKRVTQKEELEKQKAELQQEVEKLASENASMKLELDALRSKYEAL
# Protocol: as §1
# [1] = 4°C, C-terminal rhodamine design, repeat 1
# [2] = 4°C, N-terminal rhodamine design, mean or single
# [3] = 23°C, C-terminal fluorescein design as donor, TAMRA target titrated
# [4] = 23°C, C-terminal rhodamine design, repeat 1
# [5] = 23°C, N-terminal rhodamine design, mean or single
# [6] = 37°C, C-terminal fluorescein design as donor, TAMRA target titrated
# [7] = 37°C, C-terminal rhodamine design, repeat 1
# [8] = 37°C, N-terminal rhodamine design, mean or single
# [9] = 4°C, C-terminal fluorescein design as donor, TAMRA target titrated
# [10] = 4°C, C-terminal rhodamine design, mean or single
# [11] = 23°C, C-terminal rhodamine design, mean or single
# [12] = 37°C, C-terminal rhodamine design, repeat 2
sequence,measurement,setting,value
NQIKTLRTRLSKLRKDNLQLEKDIANLERKAKDLRAEKEQLEYEL [ATF4-d1],Kd,ATF3; [1],> 1000 nM
same,Kd,ATF3; [2],> 1000 nM
same,Kd,ATF3; [3],> 1000 nM
same,Kd,ATF3; [4],> 1000 nM
same,Kd,ATF3; [5],> 1000 nM
same,Kd,ATF3; [6],> 1000 nM
same,Kd,ATF3; [7],> 1000 nM
same,Kd,ATF3; [8],> 1000 nM
same,Kd,ATF4; [9],2.3 nM
same,Kd,ATF4; [10],1 nM
same,Kd,"ATF4; 4°C, N-terminal rhodamine design, repeat 1",> 5000 nM
same,Kd,"ATF4; 4°C, N-terminal rhodamine design, repeat 2",> 5000 nM
same,Kd,ATF4; [3],3.7 nM
same,Kd,ATF4; [11],1 nM
same,Kd,ATF4; [6],10 nM
same,Kd,CREB1; [9],> 5000 nM
same,Kd,CREB1; [1],> 1000 nM
same,Kd,CREB1; [2],> 5000 nM
same,Kd,CREB1; [3],> 1000 nM
same,Kd,CREB1; [4],> 1000 nM
same,Kd,CREB1; [5],> 5000 nM
same,Kd,CREB1; [6],> 1000 nM
same,Kd,CREB1; [7],> 5000 nM
same,Kd,CREB1; [8],> 1000 nM
same,Kd,MAFF; [10],> 5000 nM
same,Kd,MAFF; [2],< 200 nM
same,Kd,MAFF; [4],> 5000 nM
same,Kd,"MAFF; 23°C, C-terminal rhodamine design, repeat 2",< 200 nM
same,Kd,MAFF; [5],> 1000 nM
same,Kd,MAFF; [7],< 200 nM
same,Kd,MAFF; [12],< 200 nM
same,Kd,MAFF; [8],> 1000 nM
same,Kd,NFE2; [9],42.4 nM
same,Kd,NFE2; [2],> 5000 nM
same,Kd,NFE2; [4],200 to 1000 nM
same,Kd,NFE2; [5],> 1000 nM
same,Kd,NFE2; [6],> 1000 nM
same,Kd,NFE2; [7],> 5000 nM
same,Kd,NFE2; [12],> 5000 nM
same,Kd,NFE2; [8],> 1000 nM
same,Kd,NFE2L3; [1],> 5000 nM
same,Kd,NFE2L3; [2],> 1000 nM
same,Kd,NFE2L3; [4],> 5000 nM
same,Kd,NFE2L3; [5],> 1000 nM
same,Kd,NFE2L3; [7],> 5000 nM
same,Kd,NFE2L3; [8],> 1000 nM
same,Kd,XBP1; [1],> 1000 nM
same,Kd,XBP1; [2],> 1000 nM
same,Kd,XBP1; [4],> 1000 nM
same,Kd,XBP1; [5],> 1000 nM
same,Kd,XBP1; [7],> 1000 nM
same,Kd,XBP1; [8],> 1000 nM
same,Kd,ATF6B; [9],> 1000 nM
same,Kd,ATF6B; [1],> 5000 nM
same,Kd,ATF6B; [2],> 1000 nM
same,Kd,ATF6B; [3],> 1000 nM
same,Kd,ATF6B; [4],> 5000 nM
same,Kd,ATF6B; [5],> 1000 nM
same,Kd,ATF6B; [6],> 1000 nM
same,Kd,ATF6B; [7],> 5000 nM
same,Kd,ATF6B; [8],> 1000 nM
same,Kd,FOS; [2],133 nM
same,Kd,FOS; [3],> 1000 nM
same,Kd,FOS; [4],> 5000 nM
same,Kd,FOS; [5],> 1000 nM
same,Kd,FOS; [6],> 1000 nM
same,Kd,FOS; [7],> 1000 nM
same,Kd,FOS; [8],> 1000 nM
same,Kd,JUN; [9],> 1000 nM
same,Kd,JUN; [10],< 200 nM
same,Kd,JUN; [2],> 1000 nM
same,Kd,JUN; [3],> 1000 nM
same,Kd,JUN; [11],< 200 nM
same,Kd,JUN; [5],> 5000 nM
same,Kd,JUN; [6],> 1000 nM
same,Kd,"JUN; 37°C, C-terminal rhodamine design, mean or single",623 nM
same,Kd,JUN; [8],> 5000 nM
same,Kd,MAFG; [1],> 5000 nM
same,Kd,MAFG; [2],> 1000 nM
same,Kd,MAFG; [4],> 5000 nM
same,Kd,MAFG; [5],> 1000 nM
same,Kd,MAFG; [7],200 to 1000 nM
same,Kd,MAFG; [8],> 1000 nM
